Patent publication US12108719B2, “Methods for creating doubled haploid plants” (Monsanto Technology LLC, priority 2015, dated 2024)

Experiments:
[1] = test system: Diploid maize plants of a common inbred line; assay: Tiller induction in diploids (Example 6); assay type: in vivo
Method: Diploid maize plants of a common inbred line were subjected to a tiller induction treatment comprising drenching the soil surrounding the roots with 100 mL of a 2.5% PBZ solution (v/v; 0.4% of active ingredient) approximately one week after germination and then allowed to grow to sexual maturity in 10-inch pots a greenhouse. A control group of plants were grown under identical circumstances except that they were not subjected to the tiller induction treatment.
Three treatment groups were then formed from the tillers: tillers of the “Co-hab” treatment were allowed to continue growing in the same pot with the mother plant; those of the “-Mother” treatment also remained in the same pot, but the mother plant was removed from the pot; and those of the “Transplanted” treatment group were transplanted from the pot containing the mother plant into separate 10-inch pots, one plant per pot. Any naturally-occurring tillers produced by the control group were allowed to grow in the same pot as the mother plant, similar to the co-hab treatment. All plants were allowed to grow to sexual maturity and self-pollinated when silks and tassels formed. When seed set was complete, the average total number of seeds produced by all plants deriving from the same mother plant seed were counted and plotted in FIG. 3.

[2] = test system: maize inbred lines Germplasm A and LH244; assay: Co-dominant ear induction in diploid inbred lines (Example 5); assay type: in vivo
Method: Seeds of maize inbred lines Germplasm A and LH244 were planted in soil, germinated, and then transplanted to 10-inch pots after approximately one week, one seedling per pot. The plants were subjected to a co-dominant ear induction treatment at the V8 stage comprising drenching the soil surrounding the roots of each plant with 50 mL of a 2.5% PBZ solution (v/v; 0.4% of active ingredient). The plants were tended in a greenhouse until sexual maturity, then they were self-pollinated. When seed set had completed, the number of co-dominant ears, and the total number of kernels, produced by each plant were counted. Control plants for each germplasm were processed in the same way as the treated groups, except that the control plants were not subjected to the co-dominant ear induction treatment.

[3] = test system: DH0 seedlings of Germplasm A; assay: Doubling efficiency of DH0 plants after co-dominant ear induction treatment (Example 2); assay type: in vivo, maize
Description: An F1 hybrid-derived haploid induction population derived from female inbred maize plant Germplasm A was germinated in soil and tended in standard greenhouse maize growing conditions for approximately seven days. Seedlings were then subjected to a bulk colchicine-based chromosome doubling treatment as described above. Following treatment, seedlings were transplanted into pots and tended in a greenhouse at standard greenhouse maize growing conditions to recover.
Twenty-nine days after the colchicine doubling treatment, 77 of the DH0 seedlings were subjected to a co-dominant ear induction treatment comprising the addition of 60 mL of 2.5% PBZ (v/v) in water, which was poured into the soil surrounding the roots of each plant. The seedlings were then tended in standard greenhouse maize growing conditions until they flowered, at which time each plant that produced pollen was self-pollinated. After approximately 3-4 weeks, ears were harvested and the kernels (DH1 seeds) that formed on the treated DH0 plants were counted to determine doubling efficiencies.
Doubling efficiencies (DE) were calculated under four different constraints, depending on the minimum number of kernels an ear had to produce in order to even be included in the calculation. DE04 represents the portion of all the doubled DH0 plants that produced a total of at least four seeds when all ears were considered. DE20 represents the portion of all the doubled DH0 plants that produced a total of at least 20 kernels when all ears were considered. Similarly, DE30 represents the portion of doubled DH0 plants that produced a total of at least 30 kernels when all ears were considered, and DE50 represents the portion of doubled DH0 plants that produced a total of at least 50 kernels when all ears were considered.
Furthermore, the above doubling efficiencies were calculated once by considering only the kernels that formed on the primary ear of each plant (Ear1), once by considering only the kernels that formed on the primary and secondary ear of each plant (Ear2), once by considering only the kernels that formed on the primary, secondary, and tertiary ear of each plant (Ear3), and finally by considering all the kernels that formed on all the ears of each plant (Earall).

DH0 plants = assay: Ears classified by number of DH1 seed produced, first 3 co-dominant ears (Example 4); assay type: in vivo, maize; design: key: Class A ears produced approximately 50 seeds; Class B ears produced approximately 20-49 seeds; Class C ears produced approximately 1-20 seeds; Class 0 ears produced zero seeds; “—” represents a situation where a third ear was not formed by the plant
Description: When the DH1 ears were harvested in the experiment described in Example 3, four DH0 plants selected randomly from each germplasm were subjected to further scrutiny comprising recording of the approximate number of seeds produced from the first 3 co-dominant ears for each plant. […] In Table 4, ears are assigned to one of 4 categories, depending on the approximate number of seeds they produced: Class A ears produced approximately 50 seeds, Class B ears produced approximately 20-49 seeds, Class C ears produced approximately 1-20 seeds, and Class 0 ears produced zero seeds.

[4] = 100 mL 2.5% PBZ soil drench approx. one week after germination
[5] = Ear1 (primary ear only), 60 mL 2.5% PBZ 29 days after colchicine doubling
[6] = Ear2 (primary and secondary ear), 60 mL 2.5% PBZ after colchicine doubling
[7] = Ear3 (primary, secondary and tertiary ear), 60 mL 2.5% PBZ after colchicine doubling
[8] = EarAll (all ears), 60 mL 2.5% PBZ after colchicine doubling

CC(C)(C)[C@H](O)[C@H](Cc1ccc(Cl)cc1)n1cncn1 (relative stereo) [PBZ, (2S,3S)-1-(4-chlorophenyl)-4,4-dimethyl-2-(1,2,4-triazol-1-yl) pentan-3-ol]
morphology of mother plants [1, 4]: shortened internodes
tiller production by mother plants [1, 4]: induced the mother plants to produce tillers
average total seeds per plant vs control group ([1]; Transplanted treatment group (tillers transplanted to separate pots)): more than twice the number of seeds as the control group
Ave. Ears Per Plant ([2]; Treated, Germplasm A diploid, 50 mL 2.5% PBZ soil drench at V8): 8
response of average total kernels per plant and average ears per plant vs control ([2]; both germplasms (Germplasm A, LH244)): more than doubling
DE04 [3, 5]: 71%
DE20 [3, 5]: 37%
DE30 [3, 5]: 26%
DE50 [3, 5]: 23%
DE04 [3, 6]: 76%
DE20 [3, 6]: 59%
DE30 [3, 6]: 47%
DE50 [3, 6]: 36%
DE04 [3, 7]: 76%
DE20 [3, 7]: 65%
DE30 [3, 7]: 58%
DE50 [3, 7]: 50%
DE04 [3, 8]: 76%
DE20 [3, 8]: 68%
DE30 [3, 8]: 58%
DE50 [3, 8]: 52%
Ears classified by the number of DH1 seed they produced (DH0 plants; A, Plant 1, 1st ear): C (Class C ears produced approximately 1-20 seeds)
Ears classified by the number of DH1 seed they produced (DH0 plants; A, Plant 1, 2nd ear): B (Class B ears produced approximately 20-49 seeds)
Ears classified by the number of DH1 seed they produced (DH0 plants; A, Plant 1, 3rd ear): C (Class C ears produced approximately 1-20 seeds)
Ears classified by the number of DH1 seed they produced (DH0 plants; A, Plant 2, 1st ear): C (Class C ears produced approximately 1-20 seeds)
Ears classified by the number of DH1 seed they produced (DH0 plants; A, Plant 2, 2nd ear): A (Class A ears produced approximately 50 seeds)
Ears classified by the number of DH1 seed they produced (DH0 plants; A, Plant 2, 3rd ear): C (Class C ears produced approximately 1-20 seeds)
Ears classified by the number of DH1 seed they produced (DH0 plants; A, Plant 3, 1st ear): C (Class C ears produced approximately 1-20 seeds)
Ears classified by the number of DH1 seed they produced (DH0 plants; A, Plant 3, 2nd ear): C (Class C ears produced approximately 1-20 seeds)
Ears classified by the number of DH1 seed they produced (DH0 plants; A, Plant 3, 3rd ear): B (Class B ears produced approximately 20-49 seeds)
Ears classified by the number of DH1 seed they produced (DH0 plants; A, Plant 4, 1st ear): A (Class A ears produced approximately 50 seeds)
Ears classified by the number of DH1 seed they produced (DH0 plants; A, Plant 4, 2nd ear): C (Class C ears produced approximately 1-20 seeds)
Ears classified by the number of DH1 seed they produced (DH0 plants; A, Plant 4, 3rd ear): 0 (Class 0 ears produced zero seeds)
Ears classified by the number of DH1 seed they produced (DH0 plants; B, Plant 1, 1st ear): C (Class C ears produced approximately 1-20 seeds)
Ears classified by the number of DH1 seed they produced (DH0 plants; B, Plant 1, 2nd ear): A (Class A ears produced approximately 50 seeds)
Ears classified by the number of DH1 seed they produced (DH0 plants; B, Plant 1, 3rd ear): —
Ears classified by the number of DH1 seed they produced (DH0 plants; B, Plant 2, 1st ear): B (Class B ears produced approximately 20-49 seeds)
Ears classified by the number of DH1 seed they produced (DH0 plants; B, Plant 2, 2nd ear): C (Class C ears produced approximately 1-20 seeds)
Ears classified by the number of DH1 seed they produced (DH0 plants; B, Plant 2, 3rd ear): C (Class C ears produced approximately 1-20 seeds)
Ears classified by the number of DH1 seed they produced (DH0 plants; B, Plant 3, 1st ear): C (Class C ears produced approximately 1-20 seeds)
Ears classified by the number of DH1 seed they produced (DH0 plants; B, Plant 3, 2nd ear): A (Class A ears produced approximately 50 seeds)
Ears classified by the number of DH1 seed they produced (DH0 plants; B, Plant 3, 3rd ear): C (Class C ears produced approximately 1-20 seeds)
Ears classified by the number of DH1 seed they produced (DH0 plants; B, Plant 4, 1st ear): C (Class C ears produced approximately 1-20 seeds)
Ears classified by the number of DH1 seed they produced (DH0 plants; B, Plant 4, 2nd ear): A (Class A ears produced approximately 50 seeds)
Ears classified by the number of DH1 seed they produced (DH0 plants; B, Plant 4, 3rd ear): C (Class C ears produced approximately 1-20 seeds)
Ears classified by the number of DH1 seed they produced (DH0 plants; Control A, Plant 1, 1st ear): B (Class B ears produced approximately 20-49 seeds)
Ears classified by the number of DH1 seed they produced (DH0 plants; Control A, Plant 1, 2nd ear): A (Class A ears produced approximately 50 seeds)
Ears classified by the number of DH1 seed they produced (DH0 plants; Control A, Plant 1, 3rd ear): —
Ears classified by the number of DH1 seed they produced (DH0 plants; Control A, Plant 2, 1st ear): C (Class C ears produced approximately 1-20 seeds)
Ears classified by the number of DH1 seed they produced (DH0 plants; Control A, Plant 2, 2nd ear): B (Class B ears produced approximately 20-49 seeds)
Ears classified by the number of DH1 seed they produced (DH0 plants; Control A, Plant 2, 3rd ear): C (Class C ears produced approximately 1-20 seeds)
Ears classified by the number of DH1 seed they produced (DH0 plants; Control A, Plant 3, 1st ear): A (Class A ears produced approximately 50 seeds)
Ears classified by the number of DH1 seed they produced (DH0 plants; Control A, Plant 3, 2nd ear): C (Class C ears produced approximately 1-20 seeds)
Ears classified by the number of DH1 seed they produced (DH0 plants; Control A, Plant 3, 3rd ear): 0 (Class 0 ears produced zero seeds)
Ears classified by the number of DH1 seed they produced (DH0 plants; Control A, Plant 4, 1st ear): B (Class B ears produced approximately 20-49 seeds)
Ears classified by the number of DH1 seed they produced (DH0 plants; Control A, Plant 4, 2nd ear): B (Class B ears produced approximately 20-49 seeds)
Ears classified by the number of DH1 seed they produced (DH0 plants; Control A, Plant 4, 3rd ear): 0 (Class 0 ears produced zero seeds)
Ears classified by the number of DH1 seed they produced (DH0 plants; Control B, Plant 1, 1st ear): C (Class C ears produced approximately 1-20 seeds)
Ears classified by the number of DH1 seed they produced (DH0 plants; Control B, Plant 1, 2nd ear): C (Class C ears produced approximately 1-20 seeds)
Ears classified by the number of DH1 seed they produced (DH0 plants; Control B, Plant 1, 3rd ear): B (Class B ears produced approximately 20-49 seeds)
Ears classified by the number of DH1 seed they produced (DH0 plants; Control B, Plant 2, 1st ear): A (Class A ears produced approximately 50 seeds)
Ears classified by the number of DH1 seed they produced (DH0 plants; Control B, Plant 2, 2nd ear): A (Class A ears produced approximately 50 seeds)
Ears classified by the number of DH1 seed they produced (DH0 plants; Control B, Plant 2, 3rd ear): 0 (Class 0 ears produced zero seeds)
Ears classified by the number of DH1 seed they produced (DH0 plants; Control B, Plant 3, 1st ear): A (Class A ears produced approximately 50 seeds)
Ears classified by the number of DH1 seed they produced (DH0 plants; Control B, Plant 3, 2nd ear): 0 (Class 0 ears produced zero seeds)
Ears classified by the number of DH1 seed they produced (DH0 plants; Control B, Plant 3, 3rd ear): C (Class C ears produced approximately 1-20 seeds)
Ears classified by the number of DH1 seed they produced (DH0 plants; Control B, Plant 4, 1st ear): B (Class B ears produced approximately 20-49 seeds)
Ears classified by the number of DH1 seed they produced (DH0 plants; Control B, Plant 4, 2nd ear): B (Class B ears produced approximately 20-49 seeds)
Ears classified by the number of DH1 seed they produced (DH0 plants; Control B, Plant 4, 3rd ear): C (Class C ears produced approximately 1-20 seeds)
